From patent publication US11534412B2, “Application of totarol and pharmaceutical composition containing totarol” (Emergopharm SP. Z O.O. SP.K., priority 2017, dated 2022)

Legend:
[1] = tested on: human vaginal epithelial cells of the A-431 cell line; format: cell-based
Method: Test of totarol impact on the human vaginal epithelial cells of the A-431 cell line (ATCC® The study was carried out using the following test: Annexin-V-Fluos (Roche, Mannheim, Germany), during incubation for 2, 8 and 24 hours, under in vitro conditions, according to the instructions of the test's manufacturer. The totarol sample was prepared by dissolution of 3 mg of totarol in 3 ml of 100% DMI.
The cultivation time for the A-431 cell line was 20 days. The culture was carried out at a temperature of 37° C. in an atmosphere containing 10% CO2, on a DMEM culture medium (Institute of Immunology and Experimental Therapy PAS [IITD PAN], Wroclaw), with an addition of 10% of foetal bovine serum (FBS, Sigma-Aldrich). The culture fluid were being replaced regularly every 48 hours. After achieving a decantable growth or the so-called “monolayer”, the cells were passaged using (for approx. 10 min) 0.25% trypsin (Sigma-Aldrich). Then, the obtained tissue line was passed to 24-well plates (TPP), adjusting their densities to the value of 5×10^5 per well. The tissue culture of the studied lines was carried out for 3 next days on the surface of sterile microscope slides placed on the bottom of a 24-well plate, until a decantable growth was obtained on the surface of the microscope slides. After obtaining the so-called “monolayer”, the cells were washed with PBS without Ca^2+ and Mg^2+ ions (IITD PAN, Wroclaw), and poured with 700 µl of fresh DMEM medium with 10% FBS, together with 300 μl of properly prepared totarol. • Negative control: 1000 μl of fresh DMEM medium with 10% FBS. • Solvent control: 700 μl of fresh DMEM medium with 10% FBS+300 μl of DMI solvent. • Necrosis positive control: 900 μl of fresh DMEM medium with 10% FBS+100 μl H2O2 (30%). The proper examination using the Annexin-V-Fluos test causes green staining of apoptotic cells. […] This dye has an ability to penetrate the cell's interior freely only through a damaged cellular membrane, staining the interior red. In the case of a lack of damages of the cellular membrane, propidium iodide remains on its surface, forming a characteristic red “halo” around the cell. After a corresponding study time, i.e. 2, 8, and 24 hours, the culture fluid was removed, the content was washed with PBS (pre-heated to a temperature of 37° C.) twice. Then, 100 μl of the fluorescent stains mixture including in the Annexin-V-Fluos (Roche) kit were applied on the surface of each microscope slide (placed in a culture well) and additionally, Hoechst stain was used (cellular DNA staining). The staining procedure was carried out according to the manufacturer's recommendations. The culture together with the stains applied onto it were incubated at room temperature for 20 min. The intensity of light emitted by the cells stained with the individual stains was observed using a fluorescent microscope at the wavelength of 494-520 nm, using 400× magnification. The cells were counted in five visual fields, and the results were averaged. The reliability of the tests carried out is confirmed by hydrogen peroxide used as a positive control, causing a distinct necrosis process already after 2 hours of incubation. Data analyses were carried out on the basis of the average number of cells from five visual fields in the individual times (2, 8, and 24 h). The results are presented in Table 6 and in the form of photographic documentation—FIGS. 1, 2, 3, 4.

Gardnerella vaginalis = conditions: cited from earlier work

| Structure (SMILES) | Alive cells [1] | Apopt. cells [1] | Necrot. Cells [1] | Necrot. cells [1] | apoptosis and necrosis in epithelial cells, photographic documentation [1] | metronidazole-resistant strain percentage (Gardnerella vaginalis; Goldstein et al., 1993) [%] | percentage of resistant strains (Gardnerella vaginalis; Goldstein et al., 2002) [%] | studied strains characterised by resistance to metronidazole (Gardnerella vaginalis; Poland, 67 strains isolated from 604 females (46 out of 67)) [%] | resistance of Gardnerella vaginalis strains to metronidazole (Gardnerella vaginalis; studies published in 2007) [%] |
| --- | --- | --- | --- | --- | --- | --- | --- | --- | --- |
| OO [Necrosis positive control, reference compound] | 0 | 0 | 100 | 100 | Necrotic cells |  |  |  |  |
| Cc1ncc([N+](=O)[O-])n1CCO [metronidazole] |  |  |  |  |  | 20 | 29 | 68.7 | 70 |
